Consider five molecules from publication PMC8157578 (Antioxidants, 2021).

In data set [1] the test system is HeLa cells. Briefly: Immunofluorescence analysis of intracellular γ-H2AX generation in iron-overloaded HeLa cells (with H2O2). In kind it is cell-based, human. Conditions: for Fluorescence intensity of γ-H2AX: Fe(II)-H2O2 alone 2.86±0.64; for Concentration that significantly inhibits cellular DNA damage induced by iron overload (with H2O2) / Inhibition of cellular DNA damage induced by iron overload (with H2O2), in words: γ-H2AX, HeLa; for Concentration that significantly inhibits cellular DNA damage induced by iron overload (with H2O2): pre-treatment. The procedure: The immortalized human cervical carcinoma HeLa cell line used in this study was obtained from the Cell Resource Center, Peking Union Medical College. The cell line was checked to be free of mycoplasma contamination by PCR and culture. Its species origin was confirmed with PCR. The identity of the cell line was authenticated with STR profiling (FBI, CODIS). HeLa cells were cultured in a DMEM medium (4 mM L-glutamine, 4500 mg/L glucose, and no sodium pyruvate) with 10% fetal bovine serum (FBS) and 1% penicillin–streptomycin at 37 °C under a 5% CO2 atmosphere.
HeLa cells (10^4/well) were loaded by incubation with 20 μM Fe(II) for 2 h at 37 °C. […] For a detailed experimental procedure, please refer to the Supplementary Materials and our previous report. The experiment was repeated three times. The observation of the fluorescence of γ-H2AX in HeLa cells was conducted with a confocal laser scanning microscope (CLSM) (Leica TCS SP). Thirty cells in each group were randomly selected in different microscopic fields for quantitative detection. In detail, each well was equally divided into nine fields and numbered sequentially from the top right corner. Four fields were randomly selected according to a random number table. Thirty cells were then randomly selected from these four fields. All images were analyzed blind regarding exposure parameters, which were coded by one person and read by another who was blinded to the code. The fluorescence intensity of the γ-H2AX signal on selected images was automatically analyzed using the Image-J software. The Statistical Product and Service Solutions (SPSS 21) program was employed to analyze the data through ANOVA. Significant difference from iron-overloaded group are marked with * p < 0.05, ** p < 0.01, and *** p < 0.001.
(§1) 2.1 Immunofluorescence analysis of intracellular γ-H2AX generation in Hela cells
(§2) Fixed cells were permeabilized with 0.25% Triton-X100 in PBS for 10 min and blocked in 10%
(§3) normal goat serum, 0.1% tween 20 in PBS for 1 hour. The cells were incubated with primary
(§4) monoclonal antibody, γ-H2AX (Ser139, 20E3, Rabbit, mAb #9718) (1:600) overnight at 4°C, and then
(§5) stained secondary antibodies, anti-rabbit Alexa-488 and anti-mouse (Cell Signaling Technology) for
(§6) 1 hour. After Hoechst 33342 (10 μg/mL) staining for 2 min, dishes were mounted in ProLong™ Gold
(§7) Antifade Mountant (Invitrogen™) and stored at 4°C in the dark before confocal laser-scanning by
(§8) Broadband Confocal Leica TCS SP5. The CLSM images were obtained with the following excitation
respectively. Cells were washed 3 times with PBS (200 μL/well) at intervals. […]

Data set [2] deals with HeLa cells. Briefly: Labile iron pool (LIP) determination with calcein-AM in iron-overloaded HeLa cells, flow cytometry. In kind it is cell-based, human. Conditions: for Fluorescence intensity of calcein-AM (LIP level): 15 min, Fe(II) alone 0.63-0.64. How it is done: HeLa cells (10^6/mL) were loaded by incubation with 20 μM Fe(II) for 2 h at 37 °C. Subsequently, cells were collected by centrifugation (1000 rpm for 5 min) and incubated with 0.5 μM calcein-AM for 15 min at 37 °C in a D’hanks buffer of pH 7.4. Cells were then washed twice by D’hanks buffer (pH 7.4) and incubated with or without CAPE and its analogues. The fluorescence was monitored by both flow cytometry (BD FACS Caliber) and a CLSM (Leica TCS SP). The experiment was repeated three times.
Figure 3 Effect of CAPE and its analogues on the LIP level in iron-overloaded cells, as measured by flow cytometry (A–D). HeLa cells were pretreated with 20 μM Fe(II) for 2 h and then incubated with calcein-AM. After 15 min, cells were washed and incubated with or without CAPE and its analogues for 15 min. The fluorescence intensity of cells was measured by flow cytometry. Significant differences from the iron-overloaded group are marked with * p < 0.05, ** p < 0.01, and *** p < 0.001. The experiment was repeated three times.

The test system of data set [3] is plasmid pBR322 DNA. Briefly: Plasmid DNA strand breakage induced by Fe(III)–citrate/ascorbate/H2O2, agarose gel electrophoresis. In kind it is biochemical. The conditions noted are these: for Protective effect against iron-mediated DNA damage through inhibiting •OH generation, in words: isolated DNA, Fe(III) and Fe(II) systems, Figures S9–S12. The procedure: Plasmid DNA agarose gel electrophoresis was employed to investigate protective effect of CAPE and its analogues against DNA strand breakage induced by an iron-mediated system. For experimental procedure details, please refer to the Supplementary Materials.
Figure 4 Protective effect of CAPE and its analogues against Fe(III)–citrate–ascorbate–H2O2-induced DNA damage. […] The reaction mixture contained 20 μM Fe(III)–citrate, 10 μM ascorbate, and 200 μM H2O2, as well as the indicated concentrations of CAPE and its analogues. The experiments were repeated three times, and only typical images are presented. […]
(§9) The experiments were conducted via incubation of plasmid pBR322 DNA (5 μg/mL) at 37 °C for
(§10) 30 min in Chelex-treated HEPES buffer (100 mM, pH 7.4) with the iron-containing systems, in the
absence or presence of the indicated concentrations of CAPE and its analogues. […]

Data set [4] is described as follows: Calcein fluorescence quenching by Fe(III)–citrate, competition by ligand. In kind it is binding. Conditions: 0.1 μM calcein, 100 μM Fe(III)–citrate, 100–500 μM compound. The procedure: In the presence of calcein, mixtures of CAPE and Fe(III)/Fe(II) with different concentrations in 20 mM HEPES (pH 7.4) were used for fluorescence detection (Ex: 488 nm; Em: 515 nm). Fluorescence spectra were recorded using a Cary Eclipse fluorescence spectrophotometer (Varian, Palo Alto, CA, USA).
Figure 7 Effect of CAPE and its analogues on the fluorescence intensity of calcein–Fe(III)–citrate. (A,B) the fluorescence quenching of calcein by Fe(III)–citrate diminished in a (CAPE/CA:Fe(III)) ratio-dependent manner. […] The reaction mixture contained 0.1 μM calcein, 100 μM Fe(III)–citrate, and indicated concentrations of CAPE or its analogues (100–500 μM). The experiments were repeated three times, and only typical spectra are presented.

Data set [5] is described as follows: Cyclic voltammetry of Fe(III) chelated by ligand. In kind it is physicochemical. The conditions noted are these: 100 mM PB pH 7.4, SCE reference, 2 mV/s; Fe(III) alone approximately −0.65 V. How it is done:
CV was performed in 100 mM PB (pH 7.4) on a Princeton Applied Research (VersaSTAT3) potentiostat with a Pt wire as the counter electrode, a saturated calomel electrode (SCE) as the reference electrode, and a glassy carbon electrode (5 mm in diameter) as the working electrode. The scan rate was 2 mV/s.

The subject of data set [6] is HeLa cells. Briefly: Labile iron pool (LIP) determination with calcein-AM in iron-overloaded HeLa cells, flow cytometry. It counts as cell-based, human. The conditions noted are these: 500 μM compound alone, no iron.
Data set [7] can be described thus: 1-octanol/phosphate buffer partitioning, shake-flask method. It counts as physicochemical. Conditions: 1-octanol / 100 mM phosphate buffer pH 7.4, shake-flask.
Data set [8] in a line: ESR spin-trapping (DMPO) of •OH generated by Fe(III)–citrate–ascorbate–H2O2. In kind it is biochemical. The conditions noted are these: 100 μM Fe(III)–citrate, 100 μM ascorbate, 1 mM H2O2.
Experimental: The basic system used in this study consisted of Fe(III)/Fe(II), ascorbate, H2O2, and the spin trapping agent DMPO (100 mM) in 20 mM HEPES (pH 7.4) with or without CAPE and its analogues.
The reaction mixture contained 100 μM Fe(III)–citrate, 100 μM ascorbate, and 1 mM H2O2, as well as the indicated concentrations of CAPE and its analogues. The experiments were repeated three times, and only typical spectra are presented.
spectrometer parameters were as follows: scan range, 100 G; field set, 3470 G; time constant, 200 ms;
scan time, 100 s; modulation amplitude, 1.0 G; modulation frequency, 100 kHz; receiver gain,
The nature of data set [9]: Dissolved oxygen consumption by ascorbic acid/Fe(III)–citrate. It counts as biochemical. Conditions: 100 μM Fe(III)-citrate, 1 mM ascorbate, ratio 5:1. How it is done: as §1, §2, §3, §4, §5, §6, §7, §8
respectively. Cells were washed 3 times with PBS (200 μL/well) at intervals.
as §9, §10
absence or presence of the indicated concentrations of CAPE and its analogues.
2.3 Electron spin resonance (ESR) spin-trapping studies
ESR spectra were recorded at room temperature in a Bruker ESR 300 spectrometer. Typical […]
The consumption of O2 was measured by Orion 3 dissolved oxygen meter (Thermo Scientific, […]
Corona Needle current was 3000 nA. The size of data points was recorded in 4 M format. […]

Setting [10] is: 20 μM Fe(III)–citrate, 10 μM ascorbate, 200 μM H2O2.

“Also recorded” adds a separate entry of the source.

For the molecule `O=C(O)/C=C/c1ccc(O)c(O)c1` [CA, caffeic acid], the “Fluorescence intensity of γ-H2AX” value is 3.13±0.42 Fold of Control in data set [1] (Fe(II)-H2O2 + 50 μM compound), 3.09±0.51 Fold of Control in [1] (Fe(II)-H2O2 + 100 μM compound), 2.82±0.43 Fold of Control in [1] (Fe(II)-H2O2 + 200 μM compound) and 1.73±0.43 Fold of Control in data set [1] (Fe(II)-H2O2 + 500 μM compound). The “Concentration that significantly inhibits cellular DNA damage induced by iron overload (with H2O2)” value in data set [1] turned out to be 500 µM. The “Fluorescence intensity of calcein-AM (LIP level)” value in [2] (20 μM Fe(II) + 50 μM compound) was 0.63±0.02 Fold of Control; in [2] (20 μM Fe(II) + 200 μM compound), 0.64±0.01 Fold of Control; in data set [2] (20 μM Fe(II) + 500 μM compound), 0.70±0.02 Fold of Control; in data set [6], 1.00±0.02 Fold of Control. Moreover, the “Concentration that significantly regenerates calcein fluorescence (decreases LIP level)” value in data set [2] (iron-overloaded HeLa cells) is 500 µM. Further, in data set [3] (setting [10]), the “Protective effect against Fe(III)–citrate–ascorbate–H2O2-induced DNA damage, in words” value was “lower than CAPE; also recorded: slightly inhibited”. The “Concentration range with the stated inhibition of Fe(III)-citrate-Vc-H2O2 induced DNA damage” value in [3] (20 μM Fe(III)–citrate, 10 μM ascorbate, 200 μM H2O2, CAPE significantly, CA slightly) lay in the range of 20 to 200 µM. Moreover, in [4], the “Inhibition of calcein fluorescence quenching by Fe(III)–citrate, in words” value was “weaker inhibition”. Also, the “Reduction potential of Fe(III) chelated by compound” value (“Reduction potential” for short) in [5] was −0.76 V.
In the case of `CCOC(=O)/C=C/c1ccc(O)c(O)c1` [CAEE, caffeic acid ethyl ester], in [1], the “Concentration that significantly inhibits cellular DNA damage induced by iron overload (with H2O2)” value fell in the range of 50 to 500 µM. In addition, the “Concentration that significantly regenerates calcein fluorescence (decreases LIP level)” value in data set [2] (iron-overloaded HeLa cells) was 50 to 500 µM. In [3], the “Protective effect against iron-mediated DNA damage through inhibiting •OH generation, in words” value is listed as “weaker than CAPE”. For the same molecule, the “Reduction potential” value in [5] is reported as −0.99 V. Moreover, in data set [7], the LogKow turned out to be 1.51 ± 0.03.
Regarding `COC(=O)/C=C/c1ccc(O)c(O)c1` [CAME, caffeic acid methyl ester], the “Concentration that significantly inhibits cellular DNA damage induced by iron overload (with H2O2)” value in data set [1] fell in the range of 100 to 500 µM. Besides, in [2] (iron-overloaded HeLa cells), the “Concentration that significantly regenerates calcein fluorescence (decreases LIP level)” value was 200 to 500 µM. In addition, the “Protective effect against iron-mediated DNA damage through inhibiting •OH generation, in words” value in data set [3] was “weaker than CAPE”. Moreover, the “Reduction potential” value in [5] was −0.79 V. In data set [7], this molecule registered a LogKow of 1.27 ± 0.06.
Regarding `CCOC(=O)/C=C/c1ccc(O)c(OC)c1` [EF, ethyl ferulate], the “Inhibition of cellular DNA damage induced by iron overload (with H2O2), in words” value in data set [1] is “no significant inhibition”. For the same molecule, the “Fluorescence intensity of calcein-AM (LIP level)” value in data set [2] (20 μM Fe(II) + 50 μM compound) is given as 0.65±0.03 Fold of Control; in data set [2] (20 μM Fe(II) + 200 μM compound), 0.62±0.02 Fold of Control; in data set [2] (20 μM Fe(II) + 500 μM compound), 0.61±0.02 Fold of Control; in data set [6] it was 0.99±0.01 Fold of Control. Further, the “Effect on calcein fluorescence (LIP level), in words” value in [2] (iron-overloaded HeLa cells, 50–500 μM) is “no effect”. The “Protective effect against Fe(III)–citrate–ascorbate–H2O2-induced DNA damage, in words” value in [3] (setting [10]) was “no significant protective effect”. For the same molecule, the “Inhibitory effect against Fe(III)-citrate-Vc-H2O2 induced •OH generation, in words” value in data set [8] is “no inhibitory effect”. Moreover, the “Inhibition of calcein fluorescence quenching by Fe(III)–citrate, in words” value in [4] is “no inhibitory effects”. For the same molecule, the LogKow in data set [7] was 1.38 ± 0.02. For the same molecule, in data set [9], the “Effect on O2 consumption induced by ascorbic acid/Fe(III)–citrate, in words” value is given as “no significant effects”.
For the molecule `c1cnc2c(c1)ccc1cccnc12` [OP, 1,10-phenanthroline, reference compound], in data set [1], the “Inhibition of cellular DNA damage induced by iron overload (with H2O2), in words” value is “effective”.
